The record followed here is BindingDB's records for doi:10.1124/jpet.102.044826 (Taisho Pharmaceutical, 2003).

For orientation: IC50 means the concentration that gives 50% inhibition. Low values mean inhibition by little substance, high ones a need for much substance.

Test [1] addresses T1, Alpha-1A adrenergic receptor (Rattus norvegicus, UniProt P43140).
T1 sequence (P43140 whole entry): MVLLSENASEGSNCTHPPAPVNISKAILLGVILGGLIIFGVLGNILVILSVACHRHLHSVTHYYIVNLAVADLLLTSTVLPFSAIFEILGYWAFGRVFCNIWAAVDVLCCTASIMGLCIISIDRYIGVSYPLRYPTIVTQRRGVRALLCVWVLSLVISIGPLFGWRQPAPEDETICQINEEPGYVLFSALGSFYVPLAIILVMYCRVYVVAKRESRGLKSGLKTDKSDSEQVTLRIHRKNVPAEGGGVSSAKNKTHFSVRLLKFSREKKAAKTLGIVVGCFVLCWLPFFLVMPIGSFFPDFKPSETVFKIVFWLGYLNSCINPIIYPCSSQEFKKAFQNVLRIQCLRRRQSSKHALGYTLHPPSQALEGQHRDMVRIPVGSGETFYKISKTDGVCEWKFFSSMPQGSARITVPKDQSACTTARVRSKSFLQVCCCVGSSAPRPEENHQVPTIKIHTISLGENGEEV

Test [2] addresses T2, Alpha-2C adrenergic receptor (Homo sapiens, UniProt P18825).
T2 sequence (P18825 whole entry): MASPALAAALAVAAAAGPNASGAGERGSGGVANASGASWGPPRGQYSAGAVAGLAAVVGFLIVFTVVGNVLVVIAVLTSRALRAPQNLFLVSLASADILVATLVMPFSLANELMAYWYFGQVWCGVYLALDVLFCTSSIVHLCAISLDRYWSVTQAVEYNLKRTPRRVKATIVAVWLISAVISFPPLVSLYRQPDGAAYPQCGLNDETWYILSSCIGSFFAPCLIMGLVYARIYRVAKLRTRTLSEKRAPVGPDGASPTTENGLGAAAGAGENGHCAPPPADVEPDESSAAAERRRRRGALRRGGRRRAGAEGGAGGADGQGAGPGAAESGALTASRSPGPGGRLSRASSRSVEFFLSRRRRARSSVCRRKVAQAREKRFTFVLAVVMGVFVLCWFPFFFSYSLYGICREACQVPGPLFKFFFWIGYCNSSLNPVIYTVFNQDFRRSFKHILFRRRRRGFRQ

Each structure is given as a SMILES string.

For the compound `COc1ccc2ccccc2c1CCCCN1CCN(C[C@H](c2ccc(F)cc2)N2CCN(C(C)C)CC2)CC1` [MCL0129], the IC50 stood at 630 nM in test [1] and 1000 nM in test [2].
